Results published in patent publication US20020055462A1, “Use” (priority 1999, published 2002).
“Also recorded” adds a separate entry of the source.

What was measured:
[1] = tested on: IL-6 plus IL-6sR stimulated aromatase activity; experiment: IL-6 plus IL-6sR stimulated aromatase activity in breast fibroblasts; assay type: cell-based, human; settings: for inhibition of IL-6 plus IL-6sR (50 ng+100 ng/ml) stimulated aromatase activity, significance: compound 10 μM, p<0.001; for inhibition of stimulation of aromatase activity by IL-6 plus its soluble receptor (in words): breast fibroblasts
Experimental: (§1) The experimental protocol used was as described in the legend to FIG. 1.
(§2) Fibroblasts were cultured as previously described (2). Briefly, they were cultured in Eagles' modified minimal essential medium containing Hepes buffer (20 mmol/l), 10% foetal calf serum (FCS) and supplements. Cells were routinely passaged 2-3 times after which replicate 25 cm^2 flasks were seeded with fibroblasts and grown to confluency.
(§3) At the end of the treatment period aromatase activity was measured in intact monolayers using [1β-^3H] androstenedione (15-30 Ci/mmol, NEN-Du Pont, Stevenage, Herts, UK) over a 3-20 h period (2, 3). The number of cells was measured by counting cell nuclei using a Coulter counter. Experiments were carried out in triplicate and results shown are representative of 2-3 investigations.

[2] = tested on: MDA-MB-435 breast cancer cells; settings: oral administration, mice; cited from earlier work
[3] = tested on: B16 melanoma; settings: oral administration, mice; cited from earlier work
[4] = tested on: aromatase; experiment: Basal aromatase activity in intact monolayers of cultured breast tissue fibroblasts; assay type: cell-based, human; settings: for inhibition of basal aromatase activity: fibroblasts derived from reduction mammoplasty tissue, 24 h pre-treatment then 48 h with dexamethasone 100 nmol/l; for inhibition of basal aromatase activity (in words): stromal fibroblasts from normal or malignant breast tissue
Experimental: (§4) Inhibition of basal and TNFα-stimulated aromatase activity by paclitaxel (Pax) in breast tissue fibroblasts. Paclitaxel was added to cells which were cultured for 24 h in 2% stripped foetal calf serum. TNFα was added, in the presence of dexamethasone (100 nmol/l) and cells cultured for a further 48 h in the same medium. Controls and cells with paclitaxel, but not TNFα, were also cultured in the presence of dexamethasone for a 48 h period. Aromatase activity was measured in intact monolayers after washing cells with phosphate buffered saline. (means±SD, n=3; a, p<0.001 versus controls; b, p<0.001 versus TNFα-stimulated aromatase activity).
(§5) Samples of breast adipose or tumour tissue were obtained from women undergoing reduction mammoplasty or lumpectomy after obtaining their informed consent.
as §2, §3

[5] = tested on: Meth A sarcoma; settings: oral administration, mice; cited from earlier work
[6] = tested on: TNFα stimulated aromatase activity; experiment: TNFα-stimulated aromatase activity in cultured breast tissue fibroblasts; assay type: cell-based, human; settings: for inhibition of TNFα (20 ng/ml) stimulated aromatase activity, significance: compound 10 μM, p<0.001; for inhibition of TNFα-stimulated aromatase activity: fibroblasts derived from reduction mammoplasty tissue, 24 h pre-treatment, then TNFα plus dexamethasone for 48 h; for inhibition of TNFα-stimulated aromatase activity (in words): stromal fibroblasts from normal or malignant breast tissue
Experimental: as §4, §5, §2, §3

[7] = tested on: PGE2 stimulated aromatase activity; experiment: PGE2 stimulated aromatase activity in breast fibroblasts; assay type: cell-based, human; settings: for inhibition of stimulation of aromatase activity by PGE2 (in words): breast fibroblasts; for inhibition of PGE2 (10 μM) stimulated aromatase activity, significance: compound 10 μM, p<0.001
Experimental: as §1, §2, §3

[8] = tested on: TNFα stimulated aromatase activity; settings: high concentrations, 10-100 μM; cited from earlier work
[9] = tested on: TNFα receptors; settings: human macrophages; cited from earlier work

COc1cc2c(cc1O)CC[C@@H]1[C@@H]2CC[C@]2(C)[C@@H](O)CC[C@@H]12 [2-meOE2, 2-methoxyoestradiol]
inhibition of IL-6 plus IL-6sR (50 ng+100 ng/ml) stimulated aromatase activity, significance [1]: significant | tumour growth [2]: significantly reduced | tumour growth [3]: significantly reduced | inhibition of basal aromatase activity [4]: 46% | inhibition of basal aromatase activity (in words) [4]: inhibited | tumour growth [5]: significantly reduced | inhibition of TNFα (20 ng/ml) stimulated aromatase activity, significance [6]: significant | inhibition of TNFα stimulation of aromatase activity, dose-response study ([6]; compound at 0.1 μM): 51% | inhibition of TNFα-stimulated aromatase activity [6]: 56% | inhibition of TNFα-stimulated aromatase activity (in words) [6]: inhibited | inhibition of TNFα-stimulated aromatase activity (in words) ([6]; listed as 2-methoxyoestradiol): significantly inhibited | inhibition of stimulation of aromatase activity by PGE2 (in words) [7]: antagonise; also recorded: inhibited | inhibition of PGE2 (10 μM) stimulated aromatase activity, significance [7]: significant

C[C@]12CC[C@@H]3c4ccc(O)cc4CC[C@H]3[C@@H]1CC[C@@H]2O [oestradiol]
inhibition of TNFα stimulated aromatase activity in adipose stromal cells [8]: can inhibit

COc1cc2c(cc1OS(N)(=O)=O)CCC1C2CC[C@]2(C)C(=O)CCC12 (stereo partly drawn) [2-MeOEMATE, 2-methoxyoestrone-3-O-sulphamate]
inhibition of stimulation of aromatase activity by IL-6 plus its soluble receptor (in words) [1]: antagonise; also recorded: inhibited | inhibition of basal aromatase activity (in words) [4]: inhibited; also recorded: reduced | inhibition of TNFα-stimulated aromatase activity (in words) [6]: inhibited; also recorded: reduced | inhibition of stimulation of aromatase activity by PGE2 (in words) [7]: antagonise; also recorded: inhibited

C=C1[C@@H](C)[C@H]2[C@H](Cc3ccccc3)NC(=O)[C@]23OC(=O)/C=C/[C@H](O)CCC[C@@H](C)C/C=C/[C@H]3[C@@H]1O [Cytocholasin B]
inhibition of TNFα-stimulated aromatase activity (in words) [6]: without effect | inhibition of TNFα-stimulated aromatase activity (in words) ([6]; listed as cytocholasin B): unable to inhibit

COc1cc2c(c(OC)c1OC)-c1ccc(OC)c(=O)cc1[C@@H](NC(C)=O)CC2 [Colchicine]
inhibition of TNFα-stimulated aromatase activity (in words) [6]: without effect | inhibition of TNFα-stimulated aromatase activity (in words) ([6]; listed as colchicine): unable to inhibit

CC(=O)O[C@H]1C(=O)[C@@]2(C)[C@H]([C@H](OC(=O)c3ccccc3)[C@]3(O)C[C@H](OC(=O)[C@H](O)[C@@H](NC(=O)c4ccccc4)c4ccccc4)C(C)=C1C3(C)C)[C@]1(OC(C)=O)CO[C@@H]1C[C@@H]2O [paclitaxel]
effect on TNFα receptors [9]: rapidly down-regulate | inhibition of stimulation of aromatase activity by IL-6 plus its soluble receptor (in words) [1]: antagonise; also recorded: inhibited | inhibition of IL-6 plus IL-6sR (50 ng+100 ng/ml) stimulated aromatase activity, significance [1]: significant | inhibition of basal aromatase activity [4]: 88% | inhibition of basal aromatase activity (in words) [4]: inhibited | inhibition at 0.1 µM ([6]; Homo sapiens, Fibroblast, compound at 0.1 μM, read-out: inhibition of TNFα stimulation of aromatase activity, dose-response study): 90% | inhibition of TNFα (20 ng/ml) stimulated aromatase activity, significance [6]: significant | inhibition of TNFα-stimulated aromatase activity [6]: 91% | inhibition of TNFα-stimulated aromatase activity (in words) [6]: significantly inhibited | inhibition of TNFα-stimulated aromatase activity (in words) ([6]; listed as Paclitaxel): inhibited | inhibition of stimulation of aromatase activity by PGE2 (in words) [7]: antagonise; also recorded: inhibited | inhibition of PGE2 (10 μM) stimulated aromatase activity, significance [7]: significant

COc1cc2c(cc1O)CC[C@@H]1[C@@H]2CC[C@]2(C)[C@@H](O)[C@H](O)C[C@@H]12 [2-meOE3, 2-methoxyoestriol]
inhibition of TNFα stimulation of aromatase activity at 5 μM (in words) ([6]; compound at 5 μM): did not significantly reduce | inhibition of TNFα stimulation of aromatase activity at highest concentration tested (in words) ([6]; highest concentration tested): some inhibitory effect | inhibition of TNFα-stimulated aromatase activity (in words) [6]: less effective | inhibition of TNFα-stimulated aromatase activity (in words) ([6]; listed as 16α-hydroxy derivative of 2-meOE2): limited ability to suppress

TNFα
stimulation of aromatase activity ([6]; in the presence of dexamethasone, reduction mammoplasty fibroblasts): 375%
